In US7354711B2, “Methods for inhibiting immunostimulatory DNA associated responses” (University of Iowa Research Foundation, priority 1997, dated 2008):

Tested on: WEHI 231 cells
Assay: Inhibition of CpG-ODN 1760 protection against α-sIgM-induced inhibition of [3H] thymidine uptake
Assay type: cell-based, mouse
Details: for vs. Chloroquine, fold / Activity,-log10 (concentration (M) for half maximal inhibition of CpG-ODN effect on [3H] thymidine uptake in the presence of α-sIgM): Table 3, 9-aminoacridines; for Activity,-log10 (concentration (M) for half maximal inhibition of CpG-ODN effect on [3H] thymidine uptake in the presence of α-sIgM) / Activity: -log10 of the concentration (M) required for half maximal inhibition of CpG-ODN effect on [3H] thymidine uptake in the presence of α-sIgM: WEHI 231 cells; for Fold: activity expressed as a fraction of activity of chloroquine / Activity: -log10 of the concentration (M) required for half maximal inhibition of CpG-ODN effect on [3H] thymidine uptake in the presence of α-sIgM: Table 2, 4-aminoquinolines; for Effect on CpG-ODN action (FIG. 1): at concentrations less than 10 μM
Description: The assay of [^3H] Thymidine incorporation was carried out as follows. WEHI 231 cells (200 μL at 2×10^5/milliliter, in duplicate or triplicate) were incubated in a 96-well plate (Costar, Cambridge Mass.). Additions were made as indicated. After incubating for 16 hours, 0.5 μCi [methyl-^3H] thymidine (2 Ci/millimole, DuPont NEN, Boston Mass.) was added to each well, and the cells were incubated for another 4 hours. Cellular DNA was then captured onto glass fiber filters (Whatman 934AH) using a cell harvester (Brandel, Gaithersberg Md.). The filters were dried, placed into plastic scintillation vials with 10 milliliters of scintillation cocktail (EconoSafe, Research Products International, Mount Prospect Ill.), and counted in a liquid scintillation counter (Beckman LS-3133 T). The ^3H recovered on the filter was expressed as a fraction of the ^3H added.
Referring to experiments summarized in FIG. 1, WEHI 231 cells (ca. 2×10^5 per milliliter) were incubated for 16 hours at 37° C. with 10 μgrams/milliliter α-sIgM, 6 μgrams/milliliter ODN 1760, and the indicated concentration of the compound. After 16 hours, 0.5 μCi [^3H] thymidine was added. After 4 more hours incubation, the cellular DNA was harvested onto glass fiber filters. The dry filters were counted in a liquid scintillation counter.
Each experimental point was the mean of at least duplicate measurements.
Referring to the experiments summarized in FIG. 3, 10 μgrams/milliliter α-sIgM and the indicated concentrations of ODN 1760 and quinacrine were added simultaneously to WEHI 231 cells. Thymidine incorporation was estimated at 16 hours as described for Example 1.
Referring to the experiments summarized in FIG. 4, WEHI 231 cells were incubated with α-sIgM and ODN 1760. At times thereafter 0.1 μM quinacrine was added (data shown in the left three bars). Cells were incubated with 10 μgrams/milliliter (α-sIgM and ODN 1760 (6 μgrams/milliliter, phosphorothioate or a phosphodiester ODN with the same sequence as 1760 (PD ODN) (30 μM at time 0 hours and 8 hours; data represented in right six bars in FIG. 4). [^3H] thymidine incorporation was estimated at 16 hours.
The symbol — indicates no change. Me and Et indicate —CH3 and —CH2CH3 respectively. Aromatic substituents are in the para position except as indicated. The activity is —log10 of the concentration (M) required for half maximal inhibition of CpG-ODN effect on [^3H] thymidine uptake in the presence of α-sIgM.

CCN(CC)CCCC(Nc1c2ccc(Cl)cc2nc2ccc(OC)cc12)c1ccc(F)cc1 (stereo not drawn) [compound 23]
vs. Chloroquine, fold: 2.57 fold | Activity,-log10 (concentration (M) for half maximal inhibition of CpG-ODN effect on [3H] thymidine uptake in the presence of α-sIgM): 7.37

CCN(CC)CC(CNc1ccnc2cc(Cl)ccc12)c1ccc(OC)cc1 (stereo not drawn) [compound 34]
Fold: activity expressed as a fraction of activity of chloroquine: 5.04 fold | Activity: -log10 of the concentration (M) required for half maximal inhibition of CpG-ODN effect on [3H] thymidine uptake in the presence of α-sIgM: 7.66

CCN(CC)CCCC(C)Nc1ccnc2cc(C)ccc12 (stereo not drawn) [compound 37]
Fold: activity expressed as a fraction of activity of chloroquine: 0.03 fold | Activity: -log10 of the concentration (M) required for half maximal inhibition of CpG-ODN effect on [3H] thymidine uptake in the presence of α-sIgM: 5.50

CCN(CC)CCCC(C)Nc1ccnc2cc(F)ccc12 (stereo not drawn) [compound 13]
Fold: activity expressed as a fraction of activity of chloroquine: 0.26 fold | Activity: -log10 of the concentration (M) required for half maximal inhibition of CpG-ODN effect on [3H] thymidine uptake in the presence of α-sIgM: 6.38

C=C[C@H]1C[N@@]2CC[C@H]1C[C@@H]2[C@@H](O)c1ccnc2ccc(OC)cc12 [Quinidine, quinidine, reference compound]
Effect on CpG-ODN action (FIG. 1): little effect

COc1ccc2nc3cc(Cl)ccc3c(NCCCNCCCCNCCCNc3c4ccc(Cl)cc4nc4ccc(OC)cc34)c2c1 [compound 58, bis-(6-chloro-2-methoxy-9-acridinyl)spermine]
vs. Chloroquine, fold: 0.26 fold | Activity,-log10 (concentration (M) for half maximal inhibition of CpG-ODN effect on [3H] thymidine uptake in the presence of α-sIgM): 6.38

CCN(CC)CCCC(C)Nc1c(C)cnc2cc(OC)ccc12 (stereo not drawn) [compound 41]
Fold: activity expressed as a fraction of activity of chloroquine: 0.28 fold | Activity: -log10 of the concentration (M) required for half maximal inhibition of CpG-ODN effect on [3H] thymidine uptake in the presence of α-sIgM: 6.64

CCN(CC)Cc1cc(Nc2ccnc3cc(Cl)ccc23)ccc1O [amodiaquine, reference compound]
Inhibition of the CpG-ODN effect (FIG. 1) (at nanomolar concentrations, 10 μg/mL α-sIgM, 6 μg/mL ODN 1760): completely inhibited

CCN(CC)CCCC(Nc1c2ccc(Cl)cc2nc2ccc(OC)cc12)c1cccs1 (stereo not drawn) [compound 27]
vs. Chloroquine, fold: 1.82 fold | Activity,-log10 (concentration (M) for half maximal inhibition of CpG-ODN effect on [3H] thymidine uptake in the presence of α-sIgM): 7.22

CCN(CC)CCCC(C)Nc1ccnc2cc(Cl)ccc12 (stereo not drawn) [compound 11]
Activity: -log10 of the concentration (M) required for half maximal inhibition of CpG-ODN effect on [3H] thymidine uptake in the presence of α-sIgM: 6.56

CCN(CC)CCCC(C)Nc1c(C)cnc2c(OC)c(Cl)ccc12 (stereo not drawn) [compound 63]
Fold: activity expressed as a fraction of activity of chloroquine: 0.10 fold | Activity: -log10 of the concentration (M) required for half maximal inhibition of CpG-ODN effect on [3H] thymidine uptake in the presence of α-sIgM: 5.95

CCN(CC)CCCC(Nc1c2ccc(Cl)cc2nc2ccc(OC)cc12)c1ccc(OC)cc1 (stereo not drawn) [compound 30]
vs. Chloroquine, fold: 2.09 fold | Activity,-log10 (concentration (M) for half maximal inhibition of CpG-ODN effect on [3H] thymidine uptake in the presence of α-sIgM): 7.28

COc1cc(NC(C)CCCN)c2ncccc2c1 (stereo not drawn) [primaquine, reference compound]
Effect on CpG-ODN action (FIG. 1): little effect

CCN(CC)CCCC(C)Nc1c(C)cnc2cc(Cl)c(C)cc12 (stereo not drawn) [compound 32]
Fold: activity expressed as a fraction of activity of chloroquine: 2.57 fold | Activity: -log10 of the concentration (M) required for half maximal inhibition of CpG-ODN effect on [3H] thymidine uptake in the presence of α-sIgM: 7.37

COc1ccc2nc3cc(Cl)ccc3c(N)c2c1 [compound 59, 9-amino-6-chloro-2-methoxyacridine]
vs. Chloroquine, fold: 1.00 fold | Activity,-log10 (concentration (M) for half maximal inhibition of CpG-ODN effect on [3H] thymidine uptake in the presence of α-sIgM): 6.96

OC1CCCC1Nc1ccnc2cc(Cl)ccc12 (stereo not drawn) [compound 47]
Fold: activity expressed as a fraction of activity of chloroquine: 0.02 fold | Activity: -log10 of the concentration (M) required for half maximal inhibition of CpG-ODN effect on [3H] thymidine uptake in the presence of α-sIgM: 5.25

CCN(CC)CC=CC(C)Nc1ccnc2cc(Cl)ccc12 (stereo not drawn) [compound 53]
Fold: activity expressed as a fraction of activity of chloroquine: 0.81 fold | Activity: -log10 of the concentration (M) required for half maximal inhibition of CpG-ODN effect on [3H] thymidine uptake in the presence of α-sIgM: 6.87

CCN(CC)CCCC(C)Nc1ccnc2cc(C)ccc12 (stereo not drawn) [compound 3]
Fold: activity expressed as a fraction of activity of chloroquine: 0.16 fold | Activity: -log10 of the concentration (M) required for half maximal inhibition of CpG-ODN effect on [3H] thymidine uptake in the presence of α-sIgM: 6.16

CCN(CC)CCCC(C)Nc1ccnc2cc(Cl)c(SCc3ccccc3)cc12 (stereo not drawn) [compound 43]
Fold: activity expressed as a fraction of activity of chloroquine: 4.57 fold | Activity: -log10 of the concentration (M) required for half maximal inhibition of CpG-ODN effect on [3H] thymidine uptake in the presence of α-sIgM: 7.62

CCN(CC)CCCC(Nc1c2ccc(Cl)cc2nc2ccc(OC)cc12)c1cccnc1 (stereo not drawn) [compound 24]
vs. Chloroquine, fold: 3.63 fold | Activity,-log10 (concentration (M) for half maximal inhibition of CpG-ODN effect on [3H] thymidine uptake in the presence of α-sIgM): 7.52
